Test system: oligodendrocyte precursor cells (OPCs)
Assay: Differentiation of purified oligodendrocyte precursor cells (OPCs) into mature oligodendric cells (MBP / PDGFRα immunostaining)
Assay type: cell-based, rat
Details: 48 hours
Procedure: The OPCs were purified from P7 rat brain cortices. Rodent brain cortices were diced and dissociated with papain at 37° C. After trituration, […] were resuspended in a panning buffer and incubated at room temperature sequentially on the three immunopanning dishes: Ran-2 and GalC were used for negative selection before positive selection with 04. OPCs were released from the panning dish using 0.05% Trypsin. OPCs were seeded onto PPL-coated coverslips at 200,000 per 25 mm circle coverslip in a chemically defined culture medium with PDGFa overnight.
Sodium Butyrate (NaB) was dissolved in sterile water and added into culture medium the next day to reach desire concentration. OPC coverslips were placed into 6-well dishes, 1 ml of NaB-containing culture medium without PDGFα was added to each well. Cells were cultured for 48 hours before fixation and immunostaining. PDGFRα antibody identifies OPCs and MBP (myelin basic protein) antibody labels differentiated oligodendrocytes. Percentage of MBP-positive cells out of all PDGFRα- and MBP-positives cells were quantified.
Examining a dose response for sodium butyrate on purified oligodendroglial cultures. Sodium butyrate was added to purified oligodendroglial cultures and cells were analyzed after 48 hours of treatment for effects on survival, proliferation and differentiation. Oligodendrocyte precursor cells were immunostained with PDGFRα shown in green, oligodendrocytes were immunostained with MBP in red, cell nuclei were labeled with DAPI in blue. Percentage of MBP-positive oligodendrocytes among all oligodendroglial cells was quantified at various concentrations of sodium butyrate. The asterisks represent significance based on Students t-test with the respective controls (*p<0.05, **p<0.01)

CCCC(=O)[O-].[Na+] [sodium butyrate, Sodium Butyrate]
effect to promote OPC to differentiate into mature oligodendric cells (dose response) (50 nM to 250 μM): dose-dependent manner | number of oligodendric cells from OPC compared to the control (MBP immunohistochemistry, FIG. 7) (250 μM sodium butyrate): statistically significant increase | fold increase in the numbers of differentiated and matured oligodendric cells as compared to the control (250 μM sodium butyrate, OPCs from P7 rat brain cortices): 2.6 fold | increase in Oligo cells (percentage of MBP-positive cells) as compared to the control (each of the concentrations tested (50 nM, 500 nM, 5 μM, 50 μM, 250 μM)): statistically significant increase
